The values that follow come from patent US20070049518A1, “Novel method of treatment of inflammatory skin conditions” (priority 2005, published 2007).

Values joined by “and” are separate entries in the source; they are usually repeats but may differ in a detail not shown here. Identical values can stand only once. Like-named read-outs stand apart in the source and are kept apart here.

The target in assay [1] is T1, human MMP-1 (Homo sapiens, UniProt P03956).
T1 construct: purchased Calbiochem
T1 sequence (P03956 100-469): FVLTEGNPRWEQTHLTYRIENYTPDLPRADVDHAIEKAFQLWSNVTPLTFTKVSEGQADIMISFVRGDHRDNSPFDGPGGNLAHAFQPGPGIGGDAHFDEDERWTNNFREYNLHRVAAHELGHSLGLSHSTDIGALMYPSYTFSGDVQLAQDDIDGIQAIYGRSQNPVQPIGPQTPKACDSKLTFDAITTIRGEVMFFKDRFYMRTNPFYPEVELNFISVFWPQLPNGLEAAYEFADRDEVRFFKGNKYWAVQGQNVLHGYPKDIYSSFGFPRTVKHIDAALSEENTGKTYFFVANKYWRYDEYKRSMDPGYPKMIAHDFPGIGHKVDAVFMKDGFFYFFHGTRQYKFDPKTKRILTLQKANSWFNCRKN
In words: MMP enzyme inhibition assay, MMP-1. Conditions: for IC50: pH 7.5, 37° C., 1 hour. In kind it is biochemical.

For assay [2], the target named is T2, human MMP-2 (Homo sapiens, UniProt P08253).
T2 construct: purchased Calbiochem
T2 sequence (P08253 110-660): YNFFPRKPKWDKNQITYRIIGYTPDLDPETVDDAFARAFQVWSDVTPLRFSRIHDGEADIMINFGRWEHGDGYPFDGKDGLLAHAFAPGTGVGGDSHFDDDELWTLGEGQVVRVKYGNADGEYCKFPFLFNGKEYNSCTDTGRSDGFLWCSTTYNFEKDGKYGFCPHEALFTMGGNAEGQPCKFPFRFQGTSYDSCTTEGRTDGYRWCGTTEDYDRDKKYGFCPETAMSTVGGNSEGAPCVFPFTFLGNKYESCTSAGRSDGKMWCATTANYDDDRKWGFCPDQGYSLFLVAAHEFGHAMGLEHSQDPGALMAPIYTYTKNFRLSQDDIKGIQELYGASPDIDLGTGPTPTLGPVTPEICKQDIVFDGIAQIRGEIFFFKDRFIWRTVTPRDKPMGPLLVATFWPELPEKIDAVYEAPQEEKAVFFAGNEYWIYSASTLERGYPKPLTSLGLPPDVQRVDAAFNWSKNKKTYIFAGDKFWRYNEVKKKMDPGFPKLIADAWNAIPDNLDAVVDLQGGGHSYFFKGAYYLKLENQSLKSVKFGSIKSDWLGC
In words: MMP enzyme inhibition assay, MMP-2. In kind it is biochemical. The settings on record: for IC50: pH 7.5, 37° C., 1 hour.

Assay [3] deals with T3, human MMP-8 (Homo sapiens, UniProt P22894).
T3 construct: purchased Calbiochem
T3 sequence (P22894 101-467): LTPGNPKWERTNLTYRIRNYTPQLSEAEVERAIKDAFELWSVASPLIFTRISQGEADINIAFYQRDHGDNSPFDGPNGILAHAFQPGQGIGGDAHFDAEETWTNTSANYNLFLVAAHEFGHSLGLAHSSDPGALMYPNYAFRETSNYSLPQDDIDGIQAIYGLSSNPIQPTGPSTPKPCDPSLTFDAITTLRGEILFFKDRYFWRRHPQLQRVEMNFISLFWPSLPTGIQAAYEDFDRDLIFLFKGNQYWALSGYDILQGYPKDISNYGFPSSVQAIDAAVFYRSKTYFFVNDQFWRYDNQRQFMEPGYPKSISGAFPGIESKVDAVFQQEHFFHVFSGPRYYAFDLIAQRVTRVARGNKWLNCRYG
Description: MMP enzyme inhibition assay, MMP-8. In kind it is biochemical. The settings on record: for IC50: pH 7.5, 37° C., 1 hour.

Assay [4] addresses T4, purified aureolysin type I (Staphylococcus aureus, UniProt P81177).
T4 construct: purchased BioCentrum Ltd
Description: biochemical.

Assay [5] concerns the target T5, purified aureolysin type II (Staphylococcus aureus, UniProt P81177).
T5 sequence (P81177 1-509): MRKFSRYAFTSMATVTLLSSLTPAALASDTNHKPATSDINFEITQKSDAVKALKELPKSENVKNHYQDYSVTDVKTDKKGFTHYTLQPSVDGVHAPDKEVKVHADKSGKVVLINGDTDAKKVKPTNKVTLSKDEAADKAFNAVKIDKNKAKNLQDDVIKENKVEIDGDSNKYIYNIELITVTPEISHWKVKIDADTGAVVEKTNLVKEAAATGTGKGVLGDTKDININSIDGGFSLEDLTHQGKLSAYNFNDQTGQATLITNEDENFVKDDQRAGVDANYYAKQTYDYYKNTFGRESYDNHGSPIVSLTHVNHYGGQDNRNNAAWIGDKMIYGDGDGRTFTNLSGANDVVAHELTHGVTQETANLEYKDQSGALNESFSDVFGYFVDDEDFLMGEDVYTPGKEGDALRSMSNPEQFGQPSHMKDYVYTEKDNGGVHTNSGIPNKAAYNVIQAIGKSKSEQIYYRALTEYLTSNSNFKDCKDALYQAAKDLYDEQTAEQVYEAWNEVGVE
In words: Aureolysin enzyme inhibition assay, type II. It is filed as biochemical.

Assay [6] deals with T6, human MMP-9 (Homo sapiens, UniProt P14780).
T6 construct: purchased Calbiochem
T6 sequence (P14780 94-707): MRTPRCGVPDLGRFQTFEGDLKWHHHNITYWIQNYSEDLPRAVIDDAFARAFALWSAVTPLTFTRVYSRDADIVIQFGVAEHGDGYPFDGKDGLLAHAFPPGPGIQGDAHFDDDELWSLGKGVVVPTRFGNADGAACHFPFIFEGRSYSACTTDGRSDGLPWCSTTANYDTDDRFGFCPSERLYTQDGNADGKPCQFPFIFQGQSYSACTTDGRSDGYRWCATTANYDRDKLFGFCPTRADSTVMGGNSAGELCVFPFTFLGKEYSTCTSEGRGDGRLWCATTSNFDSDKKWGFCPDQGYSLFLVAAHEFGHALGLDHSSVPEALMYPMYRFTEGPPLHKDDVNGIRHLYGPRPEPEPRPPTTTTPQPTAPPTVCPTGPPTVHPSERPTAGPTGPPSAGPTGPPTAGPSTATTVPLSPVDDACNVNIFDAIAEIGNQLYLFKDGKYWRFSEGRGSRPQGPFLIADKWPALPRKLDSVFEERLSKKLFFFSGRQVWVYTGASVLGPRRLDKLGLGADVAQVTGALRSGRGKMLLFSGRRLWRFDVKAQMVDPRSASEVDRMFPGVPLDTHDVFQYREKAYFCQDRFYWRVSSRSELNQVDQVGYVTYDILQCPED
In words: MMP enzyme inhibition assay, MMP-9. It is filed as biochemical. The settings on record: for IC50: pH 7.5, 37° C., 1 hour.

For assay [7], the target named is T7, metalloprotease (aureolysin) activity in Staphylococcus aureus 8325-4 culture supernatants (Staphylococcus aureus, UniProt P81177).
T7 construct: 4 μl S. aureus culture supernatant; endogenous in cells; host or cells: Staphylococcus aureus 8325-4 (culture supernatant)
In words: Metalloprotease activity in S. aureus culture supernatants. It is filed as biochemical. The method, then: The culture was then centrifuged to remove the cells and the supernatant stored at −70° C. for subsequent use. […] Activity was expressed as the rate of increase in fluorescence as a function of time.

Assay [8] concerns Human skin epidermal keratinocytes. Description: Keratinocyte activation, IL-8 production. In kind it is cell-based. The settings on record: 48 hours, aureolysin 50 μg/ml. From the text: Activated keratinocytes produce IL-8, a proinflammatory chemokine. Many bacterial products cause the activation of keratinocytes. Aureolysin may be evaluated for its effects on IL-8 production by keratinocytes. Human skin epidermal keratinocytes (TCS Cellworks) are maintained as per instructions. Proliferating cultures are trypsinised, harvested, treated with a trypsin inhibitor and resuspended in growth medium at approximately 50,000 cells/well, to provide confluent monolayers in 96 well plates. Cells are incubated overnight at 37° C. at 5% CO2 to allow recovery, the spent medium aspirated from the wells and replaced with fresh growth medium. The cells are incubated at 37° C. at 5% CO2 for a further 24 or 48 hours with aureolysin or buffer control.
The supernatants are removed from each well and the concentration of IL-8 is determined using a human IL-8 ELISA development kit from R&D systems (Catalog Number: DY208) using the manufacturers instructions.
In these experiments, the cells are incubated at 37° C. at 5% CO2 for 48 hours with aureolysin or buffer control. Poly IC and lipoteichoic acid (LTA), which stimulate IL-8 production in keratinocytes were used as positive controls.

The subject of assay [9] is S. aureus ATCC 27733 or 8325-4. Description: Milk agar plate assay of S. aureus protease activity. It is filed as cell-based, Staphylococcus aureus. Conditions: FIG. 2. The procedure: In a second assay for measuring S. aureus protease activity directly, S. aureus ATCC 27733 or 8325-4 was cultured on 10% (v/v) skimmed milk agar plates containing 2% (v/v) DMSO with or without compound. Compounds dissolved in DMSO were incorporated into the solid medium immediately prior to pouring.

The target in assay [10] is aureolysin (Staphylococcus aureus, UniProt P81177). In words: Inhibition of aureolysin-mediated pro-uPA activation. The settings on record: for Urokinase activity after pro-uPA activation: Expt. 2, Compound 13 20 μM, pH 5.6.
Description: Under these conditions the extent of pro-uPA cleavage as assessed by uPA activity was directly proportional to the concentration of aureolysin in the assay.
Assay [11] concerns S. aureus 8325-4. Description: S. aureus growth by turbidometry in micro-titre plates. It is filed as cell-based, Staphylococcus aureus. The settings on record: Staphylococcus aureus, 83254, read-out: IC50 value (50% decrease in terminal absorbance); overnight, absorbance 620 nm. The method, then:
Tryptic soy broth (0.18 ml) containing S. aureus 8325-4 (approximately 10^5 cells) was mixed with 20 μl 20% (v/v) DMSO vehicle±compound in the wells of a flat-bottomed clear polystyrene 96-well micro-titre plate. The plate was incubated overnight at 37° C./220 rpm and the absorbance measured at 620 nm the following day.

Where [12] appears, read: pH 6.8, 37° C., 1 hour; read-out: IC50 value Aureolysin type II.

In general, IC50 refers to the concentration needed to halve the response being measured. For the molecule `CO[C@H](C(=O)NO)[C@@H](CC(C)C)C(=O)N[C@H](C(=O)Nc1ccccn1)C(C)(C)C` [Compound 7, solimastat], the IC50 amounted to 3.3 nM in assay [1]; 3.2 nM in [2]; 1.7 nM in [3]; 2200 nM in [4]; 3500 nM in [5] (setting [12]); 5.1 nM in assay [6]. The IC50 in [7] worked out at 4500 nM.
With lipoteichoic acid [LTA], in [8], the “IL-8 ± SE” value is 454 pg/mL and 454 ± 61.0 pg/mL.
In general, inhibition refers to how much of the control response was suppressed. As for `CC(C)C[C@H](NP(=O)(O)O[C@@H]1O[C@@H](C)[C@H](O)[C@@H](O)[C@H]1O)C(=O)N[C@@H](Cc1c[nH]c2ccccc12)C(=O)O` [Compound 15, phosphoramidon], the inhibition at 2.7 µM in assay [1] (@ 2.7 μM), in assay [2] (@ 2.7 μM), in assay [3] (@ 2.7 μM) and in assay [6] (@ 2.7 μM) was 0% in each case. Also, the IC50 was determined as 2800 nM in [4], 2300 nM in assay [5] (setting [12]) and 3300 nM in assay [7].
As to `CNC(=O)[C@@H](NC(=O)[C@H](CC(C)C)[C@H](O)C(=O)NO)C(C)(C)C` [Compound 3, marimastat], the “inhibition of proteolytic activity, zone of clearance of milk proteins (in words)” value in assay [9] is “inhibition of proteolytic activity”.
Turning to `CC(C)C[C@@H](C(=O)N[C@H](C(=O)Nc1ccccn1)C(C)(C)C)[C@H](O)C(=O)NO` [Compound 9], the half-inhibitory concentration (IC50) in [1] was found to be 3.1 nM; in [2], 1.8 nM; in assay [3], 1.7 nM; in assay [4], 1500 nM; in assay [5] (setting [12]) it was 2400 nM; in assay [6], 4.1 nM. For the same molecule, inhibition in assay [7] was half-maximal at 2900 nM (IC50).
Take `CNC(=O)C(CCc1ccccc1)NC(=O)C(CC(=O)NO)CC(C)C` (stereo not shown) [Compound 13]: the concentration for half-maximal inhibition (IC50) in assay [1] is 5.6 nM; in [2] it was 1.1 nM; in assay [3] it was 1.6 nM; in assay [4] it was 330 nM; in assay [5] (setting [12]), 690 nM; in assay [6] it was 1.9 nM. In addition, the IC50 in assay [7] was 690 nM. Moreover, the “Urokinase activity after pro-uPA activation” value in assay [10] (aureolysin 0 μg/ml) was 0.11 A405/0.5 h/μg; in assay [10] (aureolysin 0.1 μg/ml) it was 0.36 A405/0.5 h/μg; in assay [10] (aureolysin 0.3 μg/ml), 0.52 A405/0.5 h/μg; in assay [10] (aureolysin 0.8 μg/ml) it was 0.96 A405/0.5 h/μg. In addition, in assay [10] (pH 5.6, read-out: inhibition of aureolysin activation of pro-uPA), the inhibition at 20 µM is not below 82%.
For `CC(C)C[C@@H](C(=O)N[C@H](C(=O)N(C)C)C(C)(C)C)[C@H](O)C(=O)NO` [Compound 5], the IC50 in assay [1] was 11 nM; in [2], 7.7 nM; in assay [3], 3.9 nM; in assay [4], 27000 nM; in [5] (setting [12]), 41000 nM; in assay [6] it was 30 nM. The same molecule displayed an IC50 in [7] of 44000 nM.
`CNC(=O)[C@H](CCc1ccccc1)NC(=O)[C@@H](CC(=O)NO)CC(C)C` [Compound 17, (R)—N4-hydroxy-2-isobutyl-N1-((S)-1-(methylamino)-1-oxo-4-phenylbutan-2-yl)succinamide]: the 50% inhibitory concentration (IC50) was determined as 17 nM in [1]; 2.4 nM in [2]; 4.4 nM in assay [3]; 1200 nM in assay [4]; 2300 nM in assay [5] (setting [12]); 5.9 nM in assay [6]. In assay [7], this molecule came in with an IC50 of 2300 nM.
Turning to `CCCCC[C@H](CC(=O)NO)C(=O)N[C@H](C(=O)N1CCC[C@H]1CO)C(C)C` [Actinonin, actinonin, reference compound], the IC50 in assay [11] was found to be 2600 nM.
In the case of Poly IC, the “IL-8 ± SE” value in assay [8] was 282 pg/mL and 282 ± 0.9 pg/mL.
Consider `COc1ccc(S(=O)(=O)N(CC(=O)NO)CC(C)C)cc1` [Compound 14], for which the IC50 in [2] is 4.6 nM; in assay [3] it was 21 nM; in assay [4] it was 1000 nM; in assay [5] (read-out: IC50 value Aureolysin type II; pH 6.8, 37° C., 1 hour), 2500 nM; in assay [6] it was 10 nM; in assay [7], 3600 nM.
As to `CNC(=O)[C@H](CCc1ccccc1)NC(=O)[C@H](CC(=O)NO)CC(C)C` [Compound 16, (S)—N4-hydroxy-2-isobutyl-N1-((S)-1-(methylamino)-1-oxo-4-phenylbutan-2-yl)succinamide], the half-maximal inhibitory concentration (IC50) worked out at 6200 nM in assay [1]; 2100 nM in [2]; 1600 nM in [3]; 57 nM in assay [4]; 93 nM in assay [5] (setting [12]); 2000 nM in assay [6]. Also, in assay [7], the IC50 was determined as 95 nM.
`CNC(=O)[C@H](Cc1c[nH]c2ccccc12)NC(=O)[C@@H](CC(=O)NO)CC(C)C` [Compound 1, ilomastat]: the IC50 was 260 nM in [4], 430 nM in assay [5] (setting [12]) and 570 nM in assay [7].
